From patent US11617730B2, “Pharmaceutical formulation for administering paracetamol by buccal/gingival route” (Unither Pharmaceuticals, priority 2017, dated 2023)

Columns and labels:
[1] = Stability / pre-stability studies of paracetamol in hydroalcoholic solution; assay type: physicochemical
[2] = DOSY 1H-NMR measurement of diffusion coefficients and hydrodynamic radius (Stokes-Einstein); assay type: physicochemical; conditions: in ethanol; reference samples, 25° C.
From the text: For the purposes of the present invention, “hydrodynamic radius”, or RH, means the radius of a solute in solution, said solute being assumed to be spherical, as defined by the following Stokes-Einstein relation [Edward, J. T. (1970) J. Chem. Educ. 47, 261; Einstein, A. (1905) Annalen Der Physik 17, 549-560; Einstein, A. (1906) Annalen Der Physik 19, 371-381]:
[formula] • D is the diffusion coefficient of the solute in the solvent (expressed in m^2·s^−1), • kB is the Boltzmann constant, and is kB=1.3806·10^−23 J·K^−1, • T is the temperature of the medium (expressed in K), • ρ is the viscosity of the medium (expressed in Pa·s, or equivalent in kg·s^−1·m^−1), and • RH is expressed in m. […]
The sizes of molecules in solution can be estimated by liquid NMR using so-called diffusion experiments to measure the diffusion coefficients of species in solution. The experiment is performed by applying a magnetic field gradient in a given direction, the direction in which the diffusion of particles is measured. […]
This table also includes viscosity values obtained from the literature [Khattab, I. S., Bandarkar, F., Fakhree, M. A. A., and Jouyban, A. (2012) Korean J. Chem. Eng. 29, 812-817], the mole fraction of ethanol and the hydrodynamic radius calculated from the Stokes-Einstein equation. The accuracy of the value thus calculated is estimated at ±0.1 Å. […]

Coloration in pre-stability studies ([1]; 6 months at 40° C., concentration greater than 115 mg/mL): appearance of pink coloration
Recrystallization in stability studies ([1]; concentration too high, typically above 125 mg/mL): recrystallizes over time
RH of paracetamol [2]: 4.2 Å
Structure (SMILES): CC(=O)Nc1ccc(O)cc1 [paracetamol]
